Assays:
[1] = system: stomach cancer at stage IV; design: concentration or dose not given beside the values; details: only 5-Fu, control group from older literature; cited from earlier work
[2] = system: white raceless male and female rats; assay: Whole body gamma irradiation of rats at 11.4 Gy, comparison with mexamine; type: in vivo; details: radiation dose 11.4 Gy, agent 24 h before irradiation
Procedure: In order to compare the radiation protection according to the invention with the effect of conventional radiation protective agents white raceless male and female rats weighing from 150 to 180 g (age: 3 months) was subjected to whole body gamma irradiation at a dose of 11.4 Gy, the animals being protected according to the invention by administering the vitamin combination at the above-mentioned dose 24 hours before the irradiation (group I). […] A third group of rats was irradiation without administering a radiation protective agent (group III).

sarcoma 45 = details: rat, in vivo

O=c1[nH]cc(F)c(=O)[nH]1 [5-Fu, 5-Fluorouracil]
survival rate (%) after 3 months [1]: 86.7%
survival rate (%) after 6 months [1]: 66.7%
survival rate (%) after 9 months [1]: 40.0%
survival rate (%) after 12 months [1]: 20.0%
survival rate (%) after 18 months [1]: 13.7%
survival rate (%) after 22 months [1]: 0%

COc1ccc2[nH]cc(CCN)c2c1 [mexamine]
average life-span [2]: 8.2 ± 4 days
days at which 50% of animals are dead [2]: 50/8 days
days at which 100% of animals are dead [2]: 100/13 days

tocopherol [vitamin E]
distribution of vitamin E (tocopherol contents in organs) (sarcoma 45): accumulation of this vitamin in the tumour
